Results on two compounds are retold here after US20040152733A1, “Duloxetine for treatment of hot flashes” (priority 2004, published 2004).

Assay [1] concerns hot flashes. The assay is described as follows: Randomized double-blind placebo controlled clinical trial of duloxetine for hot flashes (Example 1). The note with it: Group 1: Duloxetine 60 mg QD + Placebo; eight to twelve weeks.
Protocol: Patients eligible for a clinical trial include women who are either 1) naturally menopausal; or 2) pre-menopausal but had undergone bilateral oophorectomy surgery within four weeks prior to the commencement of the study. All the women in the study experience a minimum of thirty five hot flashes per week. […] The women or men are divided into two groups for a randomized double-blind placebo controlled study.
The groups receive drug or placebo as illustrated below:
Group 1: Duloxetine (60 mg QD)+Placebo
For three weeks both groups are administered placebo only. For eight to twelve weeks thereafter, each group is administered drug or placebo. Data is collected (numbers/severity of hot flashes experienced) from each participant during and at the end of the test period.
In assay [2] the test system is hot flashes. To be noted: menopausal women (survivors of breast cancer) suffering from hot flashes; versus only 20% with placebo; cited from earlier work.

As to `CNCCC(Oc1cccc2ccccc12)c1cccs1` (centres unmarked) [duloxetine, N-methyl-3-(1-naphthalenyloxy)-3-(2-thienyl)propanamine], in assay [1], the “incidence of hot flashes relative to the placebo groups (Groups 2 and 3)” value is “decrease”.
In the case of `COc1ccc(C(CN(C)C)C2(O)CCCCC2)cc1` (centres unmarked) [venlafaxine], in assay [2], the “treated menopausal women reporting a greater than 50% decrease in hot flash frequency” value is recorded as 45%.
